Reference: patent US20190060275A1, “Administration of hypoxia activated prodrugs and antiangiogenic agents for the treatment of cancer” (Molecular Templates, Inc., priority 2010, published 2019)
Read-outs that look alike come from different tables or passages of the source. Marks after values point to notes of the source that are not given here.

Experiments:
[1] = test system: 786-O human renal cell carcinoma (RCC) xenograft; assay: Tumor growth inhibition in 786-O RCC xenograft; assay type: in vivo, nude mice
[2] = Maximum body weight loss (toxicity indicator) in xenograft-bearing nude mice
Description: (§1) Xenograft tumors were established by s.c. implantation of 5×10^6 786-O human renal cell carcinoma (RCC), 5×10^6 A375 melanoma, or 1×10^6 H460 human non-small cell lung cancer (NSCLC) cells into the flanks of nude mice, or 5×10^6 PLC/PRF/5 hepatocellular carcinoma (HCC) into the flanks of Severe Combined Immunodeficient (SCID) mice. Tumor hypoxia was detected by pimonidazole immunostaining, and morphometric analysis was performed to determine the hypoxic fraction. When tumor size was approximately 100-150 mm^3, sunitinib or sorafenib was administered daily. Sunitinib at 20, 40, or 80 mg/kg was administered p.o. daily for 3 weeks (QDx21). For all of these studies except the study utilizing the A375 melanoma model, TH-302 administration began one week after antiangiogenic agent administration. In the A375 melanoma model, TH-302 administration was begun on the same day as sorafenib administration. TH-302 at 50 mg/kg was administered i.p. daily for 5 days on and 2 days off (QDx5) for 2 weeks. Sunitinib was administered 4 hours before TH-302 on days when both agents were given.
(§2) In another study, sunitinib was administered for 5 weeks, and TH-302 was administered for 4 weeks, beginning one week after sunitinib therapy was initiated, in accordance with the methods of the invention.

[3] = test system: 786-O human renal cell carcinoma (RCC) xenograft; assay: Tumor growth inhibition in 786-O RCC xenograft; assay type: in vivo, nude mice; remark: listed apart in the source
Description: as §1
The following tables summarize the data obtained in the studies described above.

[4] = test system: H460 non small cell lung cancer (NSCLC) xenograft tumors; assay: Sunitinib-induced hypoxia in H460 xenograft tumors (pimonidazole / Hoechst 33342, morphometrics); assay type: in vivo, nude mice; details: sunitinib 40 mg/kg QDx5 intraperitoneally; vehicle 7.3±3.8%; p<0.05
Description: To measure the extent of tumor hypoxia and to illustrate methods for increasing the hypoxic fraction of a tumor with an antiangiogenic agent, so as to render the tumor more susceptible to treatment with a hypoxia activated prodrug, nude mice bearing H460 non small cell lung cancer (NSCLC) xenograft tumors were intraperitoneally administered sunitinib with the dose of 20 mg/kg and 40 mg/kg. QDx5, respectively (5 mice each), and compared with vehicle treated animals (5 mice). […] The percent hypoxic fraction in the harvested tissue was analyzed by morphometrics.

[5] = test system: 786-O RCC xenograft tumors; assay: Antiangiogenic-induced hypoxia in 786-O xenograft tumors (pimonidazole / Hoechst 33342, morphometric analysis); assay type: in vivo, nude mice; details: for hypoxic fraction in the 786-O xenograft tumor: morphometric analysis, vehicle 1.4±0.9%; for tumor hypoxia volume: vehicle 0.8±0.2%
Description: To measure the extent of tumor hypoxia and to illustrate methods for increasing the hypoxic fraction of a tumor with an antiangiogenic agent, so as to render the tumor more susceptible to treatment with a hypoxia activated prodrug, nude mice bearing 786-O RCC xenograft tumors were randomized into 3 groups, vehicle (8 mice), sunitinib (Sutent, Pfizer) 20 mg/kg and 40 mg/kg, QDx5, oral, respectively (6 mice each). Seventy one hours after the last sunitinib administration, pimonidazole was administered. Hoechst 33342 was administered 1 hour after administering pimonidazole. About a minute after administering the Hoechst 33342, the animals were sacrificed and tissues harvested.
Sorafenib 20 mpk (mgs per kilogram) and 40 mpk were orally administered once daily for 7 days. Pimonidazole was administered 3 h after the last sorafenib administration. Hoechst 33342 was administered 1 h after administering pimonidazole. About a minute after administering the Hoechst 33342, the animals were sacrificed and tissues harvested.

[6] = test system: H460 human non-small cell lung cancer (NSCLC) xenograft; assay: Tumor growth inhibition in H460 NSCLC xenograft; assay type: in vivo, nude mice
Description: as §1, §2

[7] = Maximum body weight loss in PLC/PRF/5 xenograft-bearing SCID mice; details: HCC: PLC/PRF/5; Sorafenib 20 mpk; TH-302 50 mpk; vehicle 5.9
Description: as §1, §2

[8] = test system: A375 melanoma xenograft; assay: Tumor growth inhibition in A375 melanoma xenograft; assay type: in vivo, nude mice; details: Sorafenib 20 mpk QD×16, TH-302 50 mpk begun on the same day as sorafenib
Description: as §1

[9] = test system: PLC/PRF/5 hepatocellular carcinoma (HCC) xenograft; assay: Tumor growth inhibition in PLC/PRF/5 HCC xenograft; assay type: in vivo, SCID mice; details: HCC: PLC/PRF/5; Sorafenib 20 mpk QD×16; TH-302 50 mpk
Description: as §1

[10] = test system: RCC; details: cited from earlier work
[11] = test system: metastatic renal cell carcinoma (mRCC); details: cited from earlier work
[12] = test system: breast cancer; details: cited from earlier work
[13] = test system: RCC; details: cited from earlier work; remark: listed apart in the source
[14] = test system: PLC/PRF/5 hepatocellular cancer xenograft tumor; assay: Sorafenib-induced hypoxia in PLC/PRF/5 xenograft tumors; details: vehicle 4.3±0.4%
Description: The hypoxia level in another cancer, hepatocellular cancer PLC/PRF/5, after sorafenib administration was also measured. The measurement was carried out as above, except that sorafenib was administered at 20 or 40 mg/kg once daily for 8 days.

[15] = H460, Sunitinib 5 wks + TH-302 4 wks, sunitinib 40 mpk, alone or with TH-302
[16] = H460, Sunitinib 5 wks + TH-302 4 wks, sunitinib 80 mpk, alone or with TH-302
[17] = H460, Sunitinib 3 wks + TH-302 2 wks study, TH-302 50 mpk monotherapy
[18] = H460, Sunitinib 5 wks + TH-302 4 wks study, TH-302 50 mpk monotherapy
[19] = Melanoma: A375, Sorafenib 20 mpk, TH-302 50 mpk
[20] = NSCLC: H460, Sorafenib 20 mpk, TH-302 50 mpk
[21] = RCC: 786-O, Sorafenib 30 mpk, TH-302 50 mpk
[22] = RCC: 786-O, Sorafenib 30 mpk QD×14, TH-302 50 mpk QDx5/week for two weeks
[23] = NSCLC: H460, Sorafenib 20 mpk QD×16, TH-302 50 mpk

## CO[C@H]1C[C@@H]2CC[C@@H](C)[C@@](O)(O2)C(=O)C(=O)N2CCCC[C@H]2C(=O)O[C@H]([C@H](C)C[C@@H]2CC[C@@H](OCCO)[C@H](OC)C2)CC(=O)[C@H](C)/C=C(\C)[C@@H](O)[C@@H](OC)C(=O)[C@H](C)C[C@H](C)/C=C/C=C/C=C/1C [Everolimus, everolimus]
[1]; Everolimus 5 mpk QD×19 monotherapy
  TGI (%): 48.8* %
[2]; 786-O RCC, Everolimus 5 mpk monotherapy
  Max. BW loss (%): 0%
[3]; 786-O RCC, TH-302 50 mgs per kg QD×19 or 12 days from Day 8, everolimus QD×19
  TGI: less than 50%

## CCN(CC)CCNC(=O)c1c(C)[nH]c(/C=C2\C(=O)Nc3ccc(F)cc32)c1C [Sunitinib, sunitinib]
[4]
  tumor hypoxia volume (percent hypoxic fraction): 24±3.2%
[2]; 786-O study, sunitinib 20 mpk, alone or with TH-302
  Max. BW loss (%): 0%
[2]; 786-O study, sunitinib 40 mpk, alone or with TH-302
  Max. BW loss (%): 0%
[2]; H460, Sunitinib 3 wks + TH-302 2 wks, sunitinib 40 mpk, alone or with TH-302
  Max. BW loss (%): 0%
[2]; H460, Sunitinib 3 wks + TH-302 2 wks, sunitinib 80 mpk, alone or with TH-302
  Max. BW loss (%): 0%
[2]; [15]
  Max. BW loss (%): 0.1%
[2]; [16]
  Max. BW loss (%): 0.5%
[3]; 786-O, sunitinib 20 mpk p.o. QDx21, alone or with TH-302 50 mg/kg begun one week later
  TGI (%): 16.2%
[3]; 786-O, sunitinib 40 mpk p.o. QDx21, alone or with TH-302 50 mg/kg begun one week later
  TGI (%): 37.9%
[3]; 786-O, sunitinib 40 mpk p.o. QDx21, alone or with TH-302 50 mg/kg begun one week later, listed as sunitinib
  TGI (%): 38%
[5]; sunitinib 20 mg/kg QDx5 oral
  hypoxic fraction in the 786-O xenograft tumor: 1.6±0.9%
[5]; sunitinib 40 mg/kg QDx5 oral
  hypoxic fraction in the 786-O xenograft tumor: 17.2±0.9%
[6]; H460, Sunitinib 3 wks + TH-302 2 wks, sunitinib 40 mpk, alone or with TH-302 50 mg/kg
  TGI (%): 72.9* %
[6]; H460, Sunitinib 3 wks + TH-302 2 wks, sunitinib 80 mpk, alone or with TH-302 50 mg/kg
  TGI (%): 77.7* %
[6]; H460, Sunitinib 3 wks + TH-302 2 wks, sunitinib 80 mpk, alone or with TH-302 50 mg/kg, listed as sunitinib
  TGI (%): 78%
[6]; [15]
  TGI (%): 83* %
[6]; [16]
  TGI (%): 96* %

## Cn1c(COP(=O)(NCCBr)NCCBr)cnc1[N+](=O)[O-] [TH-302]
[7]
  Max. BW loss (%): 6.3%
[1]; TH-302 50 mgs per kg QD×19 or 12 days from Day 8, everolimus QD×19
  TGI: 16%
[1]; TH-302 50 mpk from Day 1 (QD×19), alone or with Everolimus 5 mpk QD×19
  TGI (%): 15.7%
[1]; TH-302 50 mpk from Day 8 (12 days), alone or with Everolimus 5 mpk QD×19
  TGI (%): 14.2%
[8]
  TGI (%): 46 * %
[2]; 786-O RCC, TH-302 50 mpk from Day 1, alone or with Everolimus 5 mpk
  Max. BW loss (%): 0.2%
[2]; 786-O RCC, TH-302 50 mpk from Day 8, alone or with Everolimus 5 mpk
  Max. BW loss (%): 0%
[2]; 786-O study, TH-302 50 mpk monotherapy
  Max. BW loss (%): 0.1%
[2]; [17]
  Max. BW loss (%): 7.1%
[2]; [18]
  Max. BW loss (%): 0.6%
[2]; [19]
  Max. BW loss (%): 1.8%
[2]; [20]
  Max. BW loss (%): 4.8%
[2]; [21]
  Max. BW loss (%): 0%
[3]; 786-O, TH-302 50 mpk i.p. QDx5 for 2 weeks, monotherapy
  TGI (%): 9.9%
[3]; [22]
  TGI (%): 15%
[6]; [17]
  TGI (%): 67.6* %
[6]; [18]
  TGI (%): 81* %
[6]; [23]
  TGI (%): 78 * %
[9]
  TGI (%): 15%

## IFN-α
[10]
  OS: 21.8 months
  median PFS: 5 months
[11]
  OS: 23 months
  median PFS: 5.4 months

## CC(=O)O[C@H]1C(=O)[C@@]2(C)[C@H]([C@H](OC(=O)c3ccccc3)[C@]3(O)C[C@H](OC(=O)[C@H](O)[C@@H](NC(=O)c4ccccc4)c4ccccc4)C(C)=C1C3(C)C)[C@]1(OC(C)=O)CO[C@@H]1C[C@@H]2O [paclitaxel]
[12]
  OS: 26.5 months
  median PFS: 5.8 months

## CNC(=O)c1cc(Oc2ccc(NC(=O)Nc3ccc(Cl)c(C(F)(F)F)c3)cc2)ccn1 [Sorafenib, sorafenib]
[7]
  Max. BW loss (%): 5.6%
[13]; placebo 12 weeks
  median PFS: 24 weeks
[13]; placebo 14.3 months
  OS: 17.8 months
[14]; sorafenib 20 mg/kg once daily for 8 days, p<0.05 vs. vehicle
  tumor hypoxia volume: 6.5±0.6%
[14]; sorafenib 40 mg/kg once daily for 8 days, p<0.001 vs. vehicle
  tumor hypoxia volume: 9.3±0.7%
[8]
  TGI (%): 67 * %
[2]; [19]
  Max. BW loss (%): 3.1%
[2]; [20]
  Max. BW loss (%): 4.8%
[2]; [21]
  Max. BW loss (%): 0.4%
[3]; [22]
  TGI (%): 38 * %
[5]; sorafenib 20 mg/kg orally once daily for 7 days
  tumor hypoxia volume: 3.5±1.6%
[5]; sorafenib 40 mg/kg orally once daily for 7 days, p<0.05 vs. vehicle
  tumor hypoxia volume: 10±2.5%
[6]; [23]
  TGI (%): 74 * %
[9]
  TGI (%): 56 * %
